Experimental data published in patent US20240417684A1, “DIFFERENTIATION AND USE OF HUMAN MICROGLIA-LIKE CELLS FROM PLURIPOTENT STEM CELLS AND HEMATOPOIETIC PROGENITORS” (THE REGENTS OF THE UNIVERSITY OF CALIFORNIA, priority 2017, published 2024).
“Also recorded” adds a separate entry of the source.

Columns and labels:
P2ry12 [1] = biological target: T1, P2ry12 (Homo sapiens, UniProt Q9H244); experiment: ADP trans-well migration assay; format: cell-based; conditions: pre-exposure 50 μM, 1 hr; ADP 100 μM
T1 construct: iMGLs express the microglial-enriched purinergic receptor P2ry12; endogenous in cells; host or cells: iMGLs (human iPSC-derived microglia-like cells)
Method: Trans-well migration assays to ADP was performed as previously described (De Simone et al., 2010; Moore et al., 2015). iMGLs (5.5×10^4 cells/well) were cultured in serum-free basal media without cytokines for 1hour. Next, iMGLS were pre-exposed to DMSO or PSB0739 (50 μM, Tocris) for 1 hr at 37° C. in 5% CO2 cell culture incubator. Cells were then washed three times with basal medium and plated in trans-well migration chambers (5 μm polycarbonate inserts in 24 wells; Corning) containing […] (ADP, 100 μM; Sigma) in the bottom chamber in 37° C. in 5% CO2. After 4 hours, cells were washed three times and fixed in PFA (4%) for 15 minutes at room temperature. Cells were stained with Hoechst stain for 10 mins to visualize nuclei of cells. A blinded observer counted total cells per slide and then scrubbed cells off top surface, washed with PBS, and recounted to record migrated cells. Migration was reported as migrated over total cells per well. Fluorescent images of cells were captured using Olympus IX71 inverted microscope. […] […]

P2ry12 [2] = biological target: T1, P2ry12; experiment: ADP calcium imaging (Fura-2-AM, I340/I380); format: cell-based; conditions: 50 μM, 1 hour; ADP 10 μM
Method: For calcium imaging, iMGLs were plated on poly-L-lysine-coated coverslips and 1 hour later were incubated with Fura-2-AM (Molecular Probes) calcium dye diluted in Ringer solution containing (in mM): NaCl 140, KCl 4.5, CaCl2 2, MgCl2 1, HEPES 10, glucose 10, sucrose 5, pH=7.4. After a 1-hour incubation, the dye was washed out 3 times using Ringer solution and treated for 1 hour with either P2RY12 inhibitor PSB0739 (50 μM, Tocris) or Vehicle (DMSO) and used for experiments. Baseline Ca^2+ signal (I340/I380) were measured for more than 100 s and then ADP (10 μM) was introduced under stead flow after baseline measurement. Ca^2+ recordings were performed on Zeiss (Axiovert 35)-based imaging setup and data acquisition was conducted with Metafluor software (Molecular Devices). Data analysis was performed using Metafluor, Origin Pro, and Prism 6.0.

iMGLs [3] = experiment: Mesoscale multiplex cytokine and chemokine assay of iMGL conditioned media; format: cell-based, human; conditions: for CCL2 secretion, mean ± SE / CCL3 secretion, mean ± SE / CCL4 secretion, mean ± SE / CCL17 secretion, mean ± SE / CXCL10 secretion, mean ± SE / IL1A secretion, mean ± SE / IL6 secretion, mean ± SE / IL8 secretion, mean ± SE / IL10 secretion, mean ± SE / TNFA secretion, mean ± SE: iMGLs stimulated 24 h, IFNγ 20 ng/ml, IL-1β 20 ng/ml or LPS 100 ng/ml; for TNFA secretion, mean ± SE: n=3 wells/group; for cytokines/chemokines secreted by iMGLs in response to the stimulus: of the 10 examined cytokines, 24 h
Method: iMGLs culture media was replaced with basal media for 2 hours prior to stimulation with IFNγ (20 ng/ml), IL1β (20 ng/ml), and LPS (100 ng/ml) for 24 hours, after which cells were collected for RNA and conditioned media assessed for cytokine secretion. To simultaneously assess multiple cytokine and chemokine analytes from iMGL conditioned media, conditioned media from each treatment group was processed and analyzed using the V-PLEX human cytokine 30-plex kit (Mesoscale) according to the manufacturer protocol.

iMGLs [4] = experiment: RNA-seq differential gene expression of iMGLs with or without TGFβ; format: cell-based, human
Method: Cells were harvested and washed three times with DPBS and stored in RNAlater, RNA preservation solution. RNA was extracted from all cell types using RNeasy Mini Kit (Qiagen) following manufacturer's guidelines. RNA integrity (RIN) was measured for all samples using the Bioanalzyer Agilent 2100 series. All sequencing libraries analyzed were generated from RNA samples measuring a RIN score≥9. The Illumina TruSeq mRNA stranded protocol was used to obtain poly-A mRNA from all samples. 200 ng of isolated mRNA was used to construct RNA-seq libraries. Libraries were quantified and normalized using the Library Quantification Kit from Kapa Biosystems and sequenced as paired-end 100 bp reads on the Illumina HiSeq 2500 platform.
RNA-seq reads were mapped to the hg38 reference genome using STAR aligner and mapped to Gencode version 24 gene annotations using RSEM. Genes with expression (<1 FPKM) across all samples were filtered from all subsequent analysis. Differential gene expression analysis was performed on TMM normalized counts with EdgeR (Robinson et al., 2010). Multiple biological replicates were used for all comparative analysis. A p-value≤0.001 and a 2-fold change in expression were used in determining significant differentially expressed genes for respective comparisons. PCA analysis was performed using the R package rgl and plotted using plot3d. […]

T1 sequence (Q9H244 whole entry): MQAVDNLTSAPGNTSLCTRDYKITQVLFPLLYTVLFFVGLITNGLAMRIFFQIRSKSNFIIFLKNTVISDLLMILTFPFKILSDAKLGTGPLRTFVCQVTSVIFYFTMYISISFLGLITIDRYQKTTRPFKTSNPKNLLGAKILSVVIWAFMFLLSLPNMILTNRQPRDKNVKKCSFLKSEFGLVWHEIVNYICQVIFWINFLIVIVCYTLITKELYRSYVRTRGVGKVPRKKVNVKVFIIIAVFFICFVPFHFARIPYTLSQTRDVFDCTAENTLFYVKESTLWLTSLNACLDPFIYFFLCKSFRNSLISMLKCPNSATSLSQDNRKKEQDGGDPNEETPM

| Compound | effect on ADP-induced iMGL migration (P2ry12 [1]) | effect on ADP-induced calcium flux in iMGLs (P2ry12 [2]) | CCL2 secretion, mean ± SE (iMGLs [3]) | CCL3 secretion, mean ± SE (iMGLs [3]) | CCL4 secretion, mean ± SE (iMGLs [3]) | CCL17 secretion, mean ± SE (iMGLs [3]) | CXCL10 secretion, mean ± SE (iMGLs [3]) | IL1A secretion, mean ± SE (iMGLs [3]) | IL6 secretion, mean ± SE (iMGLs [3]) | IL8 secretion, mean ± SE (iMGLs [3]) | IL10 secretion, mean ± SE (iMGLs [3]) | TNFA secretion, mean ± SE (iMGLs [3]) | cytokines/chemokines secreted by iMGLs in response to the stimulus (iMGLs [3]) | genes differentially expressed in iMGLs after TGFβ removal (iMGLs [4]; TGFβ removal (24 hours)) | genes differentially expressed (increased) in iMGLs with TGFβ (iMGLs [4]; presence of TGFβ) |
| --- | --- | --- | --- | --- | --- | --- | --- | --- | --- | --- | --- | --- | --- | --- | --- |
| Nc1c(S(=O)(=O)O)cc(Nc2ccc(Nc3ccccc3)c(S(=O)(=O)O)c2)c2c1C(=O)c1ccccc1C2=O [PSB0739] | negated; also recorded: completely abrogates ADP-induced iMGL migration | negated | – | – | – | – | – | – | – | – | – | – | – | – | – |
| IFNγ: cytokine used to stimulate iMGLs (20 ng/ml) | – | – | 993.26 ± 55.76 | 295.39 ± 19.72 | 4,514.72 ± 10.01^ | 25.82 ± 1.98 | 0.00 ± 0.00 | 1.48 ± 0.25 | 12.22 ± 1.44 | 3549.05 ± 181.22 | 4.59 ± 2.35 | 58.82 ± 8.80 | 8 | – | – |
| IL-1β: cytokine used to stimulate iMGLs (20 ng/ml) | – | – | 275.98 ± 19.54 | 556.24 ± 54.01 | 4,492.26 ± 51.35^ | 21.75 ± 1.94 | 69.49 ± 4.73 | 4.89 ± 1.45 | 13.92 ± 0.41 | 3,004.54 ± 47.58^ | 4.42 ± 1.33 | 29.74 ± 0.65 | 8 | – | – |
| Lipopolysaccharide [LPS] | – | – | 5,695.46 ± 275.72 | 0.00 ± 0.00 | 4,594.57 ± 33.96^ | 92.96 ± 7.70 | 73.72 ± 4.53 | 30.55 ± 2.19 | 274.39 ± 15.25 | 4,347.96 ± 75.61^ | 31.31 ± 1.52 | 116.49 ± 9.77 | induction of all measured cytokines except for CCL3 | – | – |
| TGFβ: glia-derived cytokine in iMGL differentiation media (50 ng/ml) | – | – | – | – | – | – | – | – | – | – | – | – | – | 1517 genes | 1262 genes |
